From ChEMBL document CHEMBL1201862, “PubChem BioAssay data set” (2004)
Calls of active or inactive are those of the source.

Experiments:
[1] = molecular target: T1, Microphthalmia-associated transcription factor (Homo sapiens, UniProt O75030); test: reducers of TRPM1 reporter luminescence, concentration series – cell-based, SK-MEL-5, cherry-picked, set 3, MITF inhibitor project, dose response (AID 493073); assay type: functional;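 note: SK-MEL-5 melanoma cells with luciferase driven by the MITF target TRPM1 promoter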
T1 sequence (O75030 whole entry): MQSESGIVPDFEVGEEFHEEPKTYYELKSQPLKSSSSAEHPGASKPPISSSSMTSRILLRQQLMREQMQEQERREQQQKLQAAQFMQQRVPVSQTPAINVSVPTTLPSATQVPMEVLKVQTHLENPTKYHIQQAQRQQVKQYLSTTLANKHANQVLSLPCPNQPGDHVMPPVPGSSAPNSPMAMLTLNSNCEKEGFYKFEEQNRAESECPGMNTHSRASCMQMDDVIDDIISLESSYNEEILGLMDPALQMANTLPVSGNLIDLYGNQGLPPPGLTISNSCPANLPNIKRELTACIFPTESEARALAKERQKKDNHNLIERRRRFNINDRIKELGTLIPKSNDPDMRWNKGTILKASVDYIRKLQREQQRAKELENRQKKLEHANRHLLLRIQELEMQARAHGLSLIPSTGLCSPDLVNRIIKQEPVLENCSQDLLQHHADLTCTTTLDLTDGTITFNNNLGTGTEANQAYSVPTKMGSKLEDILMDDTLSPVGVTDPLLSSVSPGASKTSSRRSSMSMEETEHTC

[2] = molecular target: Cytochrome P450 3A4 (Homo sapiens, UniProt P08684); settings: Potency;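 note: confirmatory qHTS run detecting inhibitors and substrates of CYP3A4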
[3] = tested on: Vero; test: cells; assay type: functional; settings: Chlorocebus sabaeus
[4] = molecular target: Heat shock protein HSP 90-alpha (Homo sapiens, UniProt P07900); assay type: functional, organism-based
[5] = tested on: BJ; test: cells; assay type: functional, cell-based; settings: Homo sapiens
[6] = DRD fibroblast viability loss – cell-based, non-viral oncogenic, luminescence, dose response (AID 1934); assay type: functional; settings: Homo sapiens
[7] = tested on: BJ; test: BJ-TERT fibroblast viability loss – cell-based, RAS-independent, luminescence, dose response (AID 1933); assay type: functional; settings: Homo sapiens
[8] = tested on: BJ; test: BJ-TERT-LT-ST fibroblast viability loss – cell-based, RAS-independent, luminescence, dose response (AID 1935); assay type: functional; settings: Homo sapiens;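 note: BJ fibroblasts immortalized with TERT plus LT and ST oncogenes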
[9] = Luminescence Cell-Based Dose Retest to Confirm Inhibitors of Cancer Stem Cells. [Related pubchem assays (depositor defined):AID2717, AID2721]; assay type: functional; settings: Homo sapiens
[10] = loss of viability in HepG2 cells – cell-based, CellTiter-Glo, cherry-picked, cytotoxicity control for Shn3 inhibitor project, dose response (AID 624134); assay type: functional
[11] = reduction of Shn3 3'UTR-driven luciferase in osteoblasts – cell-based, Clone20 osteoblasts, firefly luciferase, cherry-picked, dose response (AID 624132); assay type: functional;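 note: firefly luciferase luminescence from reporter carrying the Shn3 3'UTR in osteoblasts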
[12] = non-specific 3'UTR reporter inhibition in Clone20-Shn3RL – cell-based, Renilla luciferase, cherry-picked, counter-screen for Shn3 inhibitor project, dose response (AID 624133); assay type: functional
[13] = HIV-1 AD8 envelope cell-cell fusion blockers – cherry-pick, dose response (AID 652062); assay type: functional, cell-based;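 note: luciferase signal from cell-cell fusion driven by HIV-1 clade B AD8 Env; potency is for inhibitors of fusion seen as a drop in luminescence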
[14] = molecular target: Eukaryotic translation initiation factor 4E (Mus musculus, UniProt P63073); test: blockers of eIF4G binding by eIF4E – biochemical, TR-FRET, dose response (AID 855); assay type: functional;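 note: potency for disrupting eIF4E binding to eIF4GI seen as loss of FRET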
[15] = molecular target: Nonstructural protein 1 (Influenza A virus, UniProt Q194T2); assay type: functional, Influenza A virus (A/California/07/2009(H1N1))
[16] = molecular target: Glyceraldehyde-3-phosphate dehydrogenase (Homo sapiens, UniProt P04406)
[17] = viability of PTEN-deleted HCT116 cells – cell-based, HCT116 PTEN knockout, dose response (AID 1047); assay type: functional;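 note: HCT116 colon tumor cells with PTEN knocked out; cells exposed to compound for 60 hours before readout; potency for loss of cell viability measured by luminescence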
[18] = tested on: HEK293; test: NOD2 signaling inhibitors in MDP-stimulated cells, cell-based, uHTS, luminescence (AID 2001); assay type: functional; settings: Homo sapiens
[19] = tested on: HEK293; test: cells; assay type: functional, cell-based; settings: Homo sapiens
[20] = tested on: HEK293; test: inhibition of NOD1-driven NF-kB reporter – cell-based, luminescence, uHTS, primary screen (AID 1578); assay type: functional; settings: Homo sapiens
[21] = viability of HCT116 lacking mutant beta-catenin – cell-based, human colon tumor, dose response (AID 1045); assay type: functional;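 note: HCT116 colon tumor cells with beta catenin knocked out; cells exposed to compound for 60 hours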
[22] = tested on: HEK293; test: cells; assay type: functional, cell-based; settings: Homo sapiens; remark: listed apart in the source
[23] = Luminescence Cell-Based Dose Confirmation HTS to Identify Inhibitors of Platelet Dense Granule Release. [Related pubchem assays: 1663 (Primary HTS), 1678 (Summary of Project)]; assay type: functional
[24] = molecular target: Luciferin 4-monooxygenase (Photinus pyralis, UniProt P08659); test: inhibition of purified Photinus pyralis luciferase – biochemical, luminescence, dose response (AID 1891)
[25] = cells; assay type: functional, cell-based
[26] = cells; assay type: functional, cell-based; remark: listed apart in the source
[27] = tested on: INS1; test: INS-1E survival protection against cytokine death – cell-based, luminescence, retest, dose response (AID 449756); assay type: functional; settings: Rattus norvegicus;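 note: cell death triggered by IL-1 beta plus TNF-alpha plus IFN-gamma mixture; protective hits raise ATP signal compared with cytokine alone wells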
[28] = molecular target: Genome polyprotein (dengue virus type 2, UniProt P29990); test: flavivirus cap methylation enzyme inhibition – biochemical, confirmation dose response, primary screen (AID 588689); assay type: functional
[29] = molecular target: T2, Cytochrome P450 1A2 (Homo sapiens, UniProt P05177);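 note: PubChem cytochrome P450 panel assay, CYP1A2 panel member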
T2 sequence (P05177 whole entry): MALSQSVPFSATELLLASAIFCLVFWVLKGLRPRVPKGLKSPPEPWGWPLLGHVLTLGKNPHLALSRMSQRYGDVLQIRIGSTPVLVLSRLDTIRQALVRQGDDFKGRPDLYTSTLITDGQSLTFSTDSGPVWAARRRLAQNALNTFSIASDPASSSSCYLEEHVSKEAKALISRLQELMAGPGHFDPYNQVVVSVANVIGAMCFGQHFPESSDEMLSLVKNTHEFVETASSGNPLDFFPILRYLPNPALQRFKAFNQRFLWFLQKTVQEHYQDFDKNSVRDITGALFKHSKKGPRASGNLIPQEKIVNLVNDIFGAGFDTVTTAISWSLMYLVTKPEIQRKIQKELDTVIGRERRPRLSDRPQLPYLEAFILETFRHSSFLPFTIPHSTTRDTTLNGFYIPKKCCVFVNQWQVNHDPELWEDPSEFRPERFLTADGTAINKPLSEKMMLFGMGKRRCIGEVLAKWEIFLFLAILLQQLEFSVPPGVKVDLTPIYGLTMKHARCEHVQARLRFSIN

[30] = molecular target: Paired box protein Pax-8 (Homo sapiens, UniProt Q06710); test: PAX8 transcriptional activity inhibition in RMG-I – RMG-I cells, luciferase, cherry-pick, dose response (AID 687027); assay type: functional, cell-based;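 note: luciferase reporter driven by Pax8 target thyroperoxidase promoter measured by SteadyGlo luminescence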
[31] = blockers of HIV-1 envelope-mediated cell-cell fusion – cherry-pick, dose response (AID 652057); assay type: functional, cell-based
[32] = Vero E6 cell cytotoxicity, dose response, cytotoxicity control for non-replicating M. tuberculosis project, secondary assay (AID 492998); assay type: functional, VeroE6; settings: Vero C1008
[33] = cells; assay type: functional
[34] = THP-1 cell cytotoxicity, dose response, cytotoxicity control for non-replicating M. tuberculosis project (AID 489025); assay type: functional
[35] = molecular target: T3, Sentrin-specific protease 8 (Homo sapiens, UniProt Q96LD8); assay type: functional
T3 sequence (Q96LD8 whole entry): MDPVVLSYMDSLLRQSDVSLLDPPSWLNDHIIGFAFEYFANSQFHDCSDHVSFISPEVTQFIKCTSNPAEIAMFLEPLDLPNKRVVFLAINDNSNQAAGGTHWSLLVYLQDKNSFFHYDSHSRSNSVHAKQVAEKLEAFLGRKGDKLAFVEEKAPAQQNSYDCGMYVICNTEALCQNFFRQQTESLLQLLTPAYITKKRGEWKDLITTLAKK

[36] = molecular target: T3, Sentrin-specific protease 8; assay type: functional; remark: listed apart in the source

CC(C)N1C/C(=C/c2cccnc2)C(=O)/C(=C/c2cccnc2)C1
AC50 [1]: 14.2 µM (active)

CC(=O)Nc1ccc(C2C(C)CCC3C(=O)N4C(CCC(C)[C@@H]4c4ccc(NC(C)=O)cc4)C(=O)N32)cc1 (stereo partly drawn)
AC50 [2]: 3.16 µM (inconclusive)

N#Cc1c(NCCN)nc(-c2ccccc2)c2c1CCCC2
CC50 [3]: 16.4 µM (active)

O=S(=O)(Nc1nc2ccccc2nc1N1CCN(c2ccccn2)CC1)c1ccc(Cl)cc1
AC50 [4]: 6.23 µM (active)

CCC1=Nc2cc(C(=O)NCc3cccnc3)ccc2Sc2ccc(C)cc21
EC50 [5]: 101 µM (active)
EC50 [6]: 3.06 µM (active)
EC50 [7]: 4.48 µM (active)
EC50 [8]: 16.6 µM (active)
AC50 [9]: 0.493 µM (active)

COc1cc2ccnc(Cc3cccc(OC)c3OC)c2cc1OC
AC50 [10]: 40.7 µM (active)
AC50 [11]: 4.64 µM (active)
AC50 [12]: 5.35 µM (active)

O=C1Nc2ccc(Br)cc2/C1=C/C1CC=CCC1 (stereo not drawn)
AC50 [4]: 8.03 µM (active)

CCC(NCc1ccc(F)cc1)=C1C(=O)N(C)C(=O)N(C)C1=O
AC50 [13]: 12.2 µM (active)

CCNCC(O)COCC(O)CNCC (stereo not drawn)
IC50 [14]: > 64 µM (inactive)

Cc1ccc(S(=O)(=O)CCC(=O)NCc2ccccc2Cl)cc1
IC50 [14]: > 64 µM (inactive)

O=C(Nc1nc(-c2ccccn2)cs1)C1COc2ccccc2O1 (stereo not drawn)
AC50 [10]: 47.6 µM (active)
AC50 [11]: 5.81 µM (active)
AC50 [12]: 4.69 µM (active)
AC50 [4]: 5.85 µM (active)
CC50 [3]: 10 µM (active)
IC50 [15]: 10.7 µM (active)

O=C(O)CS(=O)(=O)c1ccc(-c2ccc(S(=O)(=O)CC(=O)O)cc2)cc1
IC50 [16]: > 100 µM (not active)

CCCn1c(-c2ccc(F)cc2)nc2c(NC3CC4CCC(C3)N4C)nc(C)nc21 (stereo not drawn)
AC50 [2]: 15.8 µM (inconclusive)

CCOc1cc(C=C(C(=O)OC)C(=O)OC)ccc1OCc1ccc([N+](=O)[O-])cc1
EC50 [17]: 18 µM (active)
IC50 [18]: 5.8 µM (active)
IC50 [19]: > 20 µM (inactive)
EC50 [20]: 11.9 µM (active)
EC50 [21]: 16.9 µM (active)
IC50 [22]: 3.72 µM (active)

COc1ccc(CNC(=O)c2cc3c(C)nc4ccccc4c3o2)c(OC)c1
AC50 [10]: 3.5 µM (active)
AC50 [11]: 3.22 µM (active)
AC50 [12]: 2.47 µM (active)
EC50 [23]: > 112 µM (not active)
EC50 [24]: > 112 µM (not active)

Cc1nc(N2CCOCC2)c2nc(-c3ccccc3)n(CCN3CCOCC3)c2n1
AC50 [2]: 10 µM (inconclusive)

CCCCNc1nc(C)nc2c1nc(-c1ccccc1)n2CCN(C)C
AC50 [2]: 15.8 µM (inconclusive)

COc1ccc(C(NC(C)=O)c2ccc3cccnc3c2O)c(OC)c1 (stereo not drawn)
AC50 [10]: 2.68 µM (active)
AC50 [11]: 1.74 µM (active)
AC50 [12]: 2.16 µM (active)
EC50 [25]: 8.62 µM (active)
AC50 [1]: 5.15 µM (active)
EC50 [26]: > 350 µM (not active)
AC50 [27]: 1.09 µM (active)

Oc1c(CN2CCOCC2)cc(CN2CCOCC2)c(O)c1O
IC50 [28]: 15.2 µM (active)

O=C(O)c1ccccc1C(=O)Nc1nccs1
AC50 [29]: 15.8 µM (inconclusive)
IC50 [14]: > 64 µM (inactive)

Cc1nn(-c2ccccc2)c(C)c1C(=O)OC(C)C(=O)NC1CCCCC1 (stereo not drawn)
AC50 [10]: 41.8 µM (active)
AC50 [11]: 8.19 µM (active)
AC50 [12]: 25.8 µM (active)

Nc1nc(N)c2cc(S(=O)(=O)c3cccc(C(F)(F)F)c3)ccc2n1
AC50 [10]: 5.52 µM (active)
AC50 [11]: 5.22 µM (active)
AC50 [12]: 16.9 µM (active)

C[C@@H]1CN([C@@H](C)CO)C(=O)c2cc(NC(=O)c3ccccc3)ccc2O[C@@H](C)CCCCO[C@H]1CN(C)Cc1ccc(C(F)(F)F)cc1
AC50 [30]: 10.1 µM (active)

C[C@@H]1CN([C@@H](C)CO)C(=O)Cc2cc(N(C)C)ccc2O[C@H]1CN(C)Cc1ccc(Oc2ccccc2)cc1
AC50 [30]: 11 µM (active)

COc1ccc(NC(=O)Nc2ccc3c(c2)C(=O)N([C@H](C)CO)C[C@H](C)[C@H](CN(C)S(=O)(=O)c2ccc(C)cc2)O3)cc1
AC50 [13]: 11.2 µM (active)
AC50 [31]: 3.61 µM (active)

COc1cc(C(=O)OC2CC[C@]3(C)C4CCC5[C@]6(O)CC(O)[C@]7(O)C(CN8CC(C)CCC8[C@]7(C)O)[C@]6(O)C[C@@]53O[C@]24O)cc(OC)c1OC (stereo partly drawn)
AC50 [2]: 20 µM (inconclusive)

Cc1ccc(-c2nn(-c3ccccc3)cc2/C=N/NC(=O)c2ccncc2)o1
CC50 [32]: > 20 µM (active)
IC50 [33]: 0.22 µM (active)
CC50 [34]: 32.8 µM (active)

O=[N+]([O-])c1ccc(/C=N/c2ccc(Cl)c([N+](=O)[O-])c2)s1
IC50 [35]: 2.35 µM (active)
IC50 [36]: 3.07 µM (active)
AC50 [4]: 2.99 µM (active)

O=C(/C=C/c1ccco1)c1ccccc1O
IC50 [14]: 50 µM (inactive)

O=C(/C=C/c1ccccc1)c1ccc(O)cc1O [2',4'-DIHYDROXYCHALCONE]
AC50 [2]: 1.58 µM (inconclusive)

O=c1cc(-c2ccccc2)oc2c(O)c(O)ccc12 [7,8-DIHYDROXYFLAVONE]
AC50 [2]: 39.8 µM (inconclusive)

O=C1C=C(O)C(=O)c2ccccc21 [LAWSONE]
AC50 [2]: 25.1 µM (inconclusive)
